Assay results as given in PubChem BioAssay AID1259407 (Chemical Carcinogenesis Research Information System (CCRIS), 2018).
Active and inactive are the calls of the source. No rule for the calls is given here.

Test system: CCRIS mutagenicity, Ames/micronucleus/aberration tests
Test: CCRIS mutagenicity studies

ClCCOCCCl
mutagenic call (End Point: IN VITRO CHROMOSOMAL ABERRATIONS, Test System: CHO CELLS, Metabolic Activation: NONE): inactive; negative | mutagenic call (End Point: IN VITRO CHROMOSOMAL ABERRATIONS, Test System: CHO CELLS, Metabolic Activation: RAT, LIVER, S-9, AROCLOR 1254): inactive; negative | mutagenic call (Test System: AMES SALMONELLA TYPHIMURIUM, Strain/Indicator: TA98, Metabolic Activation: HAMSTER, LIVER, S-9, PHENOBARBITAL AND BETA-NAPHTHOFLAVONE, Method: PREINCUBATION): inactive; negative | mutagenic call (Test System: AMES SALMONELLA TYPHIMURIUM, Strain/Indicator: TA98, Metabolic Activation: NONE, Method: PREINCUBATION): inactive; negative | mutagenic call (Test System: AMES SALMONELLA TYPHIMURIUM, Strain/Indicator: TA98, Metabolic Activation: RAT, LIVER, S-9, PHENOBARBITAL AND BETA-NAPHTHOFLAVONE, Method: PREINCUBATION): inactive; negative | mutagenic call (Test System: AMES SALMONELLA TYPHIMURIUM, Strain/Indicator: TA100, Metabolic Activation: HAMSTER, LIVER, S-9, PHENOBARBITAL AND BETA-NAPHTHOFLAVONE, Method: PREINCUBATION): inactive; negative | mutagenic call (Test System: AMES SALMONELLA TYPHIMURIUM, Strain/Indicator: TA100, Metabolic Activation: NONE, Method: DESICCATOR): active; positive | mutagenic call (Test System: AMES SALMONELLA TYPHIMURIUM, Strain/Indicator: TA100, Metabolic Activation: NONE, Method: PREINCUBATION): inactive; negative | mutagenic call (Test System: AMES SALMONELLA TYPHIMURIUM, Strain/Indicator: TA100, Metabolic Activation: RAT, LIVER, S-9, PHENOBARBITAL AND BETA-NAPHTHOFLAVONE, Method: PREINCUBATION): inactive; negative | mutagenic call (Test System: AMES SALMONELLA TYPHIMURIUM, Strain/Indicator: TA1535, Metabolic Activation: NONE, Method: PREINCUBATION): active; positive | mutagenic call (Test System: AMES SALMONELLA TYPHIMURIUM, Strain/Indicator: TA1537, Metabolic Activation: HAMSTER, LIVER, S-9, PHENOBARBITAL AND BETA-NAPHTHOFLAVONE, Method: PREINCUBATION): inactive; negative | mutagenic call (Test System: AMES SALMONELLA TYPHIMURIUM, Strain/Indicator: TA1537, Metabolic Activation: NONE, Method: PREINCUBATION): inactive; negative | mutagenic call (Test System: AMES SALMONELLA TYPHIMURIUM, Strain/Indicator: TA1537, Metabolic Activation: RAT, LIVER, S-9, PHENOBARBITAL AND BETA-NAPHTHOFLAVONE, Method: PREINCUBATION): inactive; negative | mutagenic call (Test System: E. COLI, Strain/Indicator: WP2UVRA, Metabolic Activation: NONE, Method: PREINCUBATION): inactive; negative | mutagenic call (Test System: E. COLI, Strain/Indicator: WP2UVRA, Metabolic Activation: RAT, LIVER, S-9, PHENOBARBITAL AND BETA-NAPHTHOFLAVONE, Method: PREINCUBATION): inactive; negative
